In patent US6589984B1, “Benzofurylpyrone derivatives” (Teijin Limited, priority 1998, dated 2003):

What was measured:
[1] = Drug effect evaluation test: serum TG, total cholesterol and HDL in rats after 7 days of oral dosing; assay type: in vivo; conditions: SD male rats, 4 hours after final administration
Description: 6-(benzofuran-2-yl)-3,5-dimethyl-4-hydroxy-2H-pyran-2-one (Example 2) was suspended in a 0.5% carboxymethyl cellulose Na aqueous solution (vehicle) to prepare 20 mg/ml and 60 mg/ml administration solutions, and these were orally administered to 6-week-old SD male rats at a dose of 5 ml/kg once a day, for 7 consecutive days. CE-2 by Nihon Crea Co. was used for the rat feed, and the rats were allowed free access to food and water. The rats were separated into a vehicle-administered group of 6 rats and a drug-administered group of 6 rats for a test. At 4 hours after the final drug administration, the rats were killed under ether anesthesia, blood was drawn from the abdominal aorta, and the serum levels of TG, total cholesterol (TC) and HDL-were measured.
Triglyceride EII-HA Test Wako (product of Wako Junyaku Kogyo) was used for the TG measurement, HA Test Wako/Cholesterol E-HA Test Wako (product of Wako Junyaku Kogyo) was used for the total cholesterol (TC) measurement, and HDL-cholesterol Test Wako (product of Wako Junyaku Kogyo) was used for the HDL measurement.

[2] = test system: Human hepatic cancer cells HepG2; assay: TG production inhibiting activity (14C-acetic acid incorporation into TG) in HepG2 cells; assay type: cell-based; conditions: for IC50: group criterion
How it was run: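 HepG2 cells cultured 6 days in eRDF with 10% bovine serum, then in serum-free eRDF given compound (diluted from 20 mM DMSO stock) plus 14C-acetic acid for one day at 37 °C, 5% CO2. Lipids extracted with hexane/isopropanol 2:1 and separated by TLC; the TG spot was cut out and counted by liquid scintillation.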

[3] = 100 mg/kg orally once a day for 7 days
[4] = 300 mg/kg orally once a day for 7 days
[5] = Homo sapiens, HepG2, alternatives: IC50 less than 10 μM, or at least 30% inhibition at 1 μM, or at least 50% inhibition at 10 μM
[6] = Homo sapiens, HepG2, alternatives: IC50 at least 10 μM and less than 100 μM, or at least 5% and less than 30% inhibition at 1 μM, or at least 30% and less than 50% inhibition at 10 μM

Structure (SMILES): Cc1c(-c2cc3ccccc3o2)oc(=O)c(C)c1O [Example 2, 6-(benzofuran-2-yl)-3,5-dimethyl-4-hydroxy-2H-pyran-2-one]
- Serum HDL-C (mg/dl) (mean ± SE) [1, 3]: 35.0 ± 3.1 mg/dL
- Serum TG (mg/dl) (mean ± SE) [1, 3]: 94.8 ± 6.5 mg/dL
- Serum HDL-C (mg/dl) (mean ± SE) [1, 4]: 42.2 ± 3.8 mg/dL
- Serum TG (mg/dl) (mean ± SE) [1, 4]: 74.8 ± 10.7 mg/dL
- triglyceride biosynthesis inhibiting activity ([2]; HepG2, conclusion in words from Table 1): exhibits triglyceride biosynthesis inhibiting activity
- inhibition at 1 µM ([2]; Homo sapiens, 24 h, sample concentration 1 μM, HepG2, one day culture with 14C-acetic acid): 22%
- inhibition at 10 µM ([2]; Homo sapiens, 24 h, sample concentration 10 μM, HepG2, one day culture with 14C-acetic acid): 70%
- inhibition at 100 µM ([2]; Homo sapiens, 24 h, sample concentration 100 μM, HepG2, one day culture with 14C-acetic acid): 98%
- IC50 [2, 5]: < 10 µM

Structure (SMILES): Cc1c(-c2cc3cccc(OCc4ccccc4)c3o2)oc(=O)c(C)c1O [Example 286, 6-(7-benzyloxybenzofuran-2-yl)-3,5-dimethyl-4-hydroxy-2H-pyran-2-one]
- IC50 [2, 6]: 10 to 100 µM

Structure (SMILES): CC(=O)Oc1c(C)c(-c2cc3ccccc3o2)oc(=O)c1C(C)C [Example 287, 4-acetyloxy-6-(benzofuran-2-yl)-3-isopropyl-5-methyl-2H-pyran-2-one]
- IC50 [2, 6]: 10 to 100 µM

Structure (SMILES): COC(=O)c1ccc2oc(-c3oc(=O)c(C)c(O)c3C)cc2c1 [Example 290, 3,5-dimethyl-4-hydroxy-6-(5-(methoxycarbonyl)benzofuran-2-yl)-2H-pyran-2-one]
- IC50 [2, 5]: < 10 µM

Structure (SMILES): COCOc1ccc2cc(-c3oc(=O)c(C)c(O)c3C)oc2c1 [Example 291, 3,5-dimethyl-4-hydroxy-6-(6-methoxymethoxybenzofuran-2-yl)-2H-pyran-2-one]
- IC50 [2, 5]: < 10 µM

Structure (SMILES): COCOc1ccc2cc(-c3oc(=O)c(C)c(OC(C)=O)c3C)oc2c1 [Example 292, 4-acetyloxy-3,5-dimethyl-6-(6-methoxymethoxybenzofuran-2-yl)-2H-pyran-2-one]
- IC50 [2, 6]: 10 to 100 µM

Structure (SMILES): CC(=O)Oc1c(C)c(-c2cc3cc(C(=O)Nc4ccccc4)ccc3o2)oc(=O)c1C [Example 295, 4-acetyloxy-3,5-dimethyl-6-(5-(phenylcarbamoyl)benzofuran-2-yl)-2H-pyran-2-one]
- IC50 [2, 6]: 10 to 100 µM

Structure (SMILES): CC(=O)Oc1c(C)c(-c2cc3cc(OC(=O)c4ccccc4)ccc3o2)oc(=O)c1C [Example 296, 4-acetyloxy-6-(5-benzoyloxybenzofuran-2-yl)-3,5-dimethyl-2H-pyran-2-one]
- IC50 [2, 6]: 10 to 100 µM

Structure (SMILES): Cc1c(-c2cc3cc(N(C)S(=O)(=O)c4ccc(Cl)cc4)ccc3o2)oc(=O)c(C)c1O [Example 297, 6-(5-(N-(4-chlorophenylsulfonyl)-N-methylamino)benzofuran-2-yl)-3,5-dimethyl-4-hydroxy-2H-pyran-2-one]
- IC50 [2, 5]: < 10 µM

Structure (SMILES): Cc1c(-c2cc3cc(C(=O)N(C)c4ccccc4)ccc3o2)oc(=O)c(C)c1O [Example 299, 3,5-dimethyl-4-hydroxy-6-(5-(N-methyl-N-phenylcarbamoyl)benzofuran-2-yl)-2H-pyran-2-one]
- IC50 [2, 5]: < 10 µM

Structure (SMILES): Cc1c(-c2cc3cc(C(=O)N4CCc5ccccc5C4)ccc3o2)oc(=O)c(C)c1O [Example 302, 3,5-dimethyl-4-hydroxy-6-(5-(1,3,4-trihydroisoquinolin-2-ylcarbonyl)benzofuran-2-yl)-2H-pyran-2-one]
- IC50 [2, 5]: < 10 µM

Structure (SMILES): Cc1c(-c2cc3cc(OCc4cncc(O)c4)ccc3o2)oc(=O)c(C)c1O [Example 304, 3,5-dimethyl-4-hydroxy-6-(5-(5-hydroxy-3-pyridylmethoxy)benzofuran-2-yl)-2H-pyran-2-one]
- IC50 [2, 5]: < 10 µM

Structure (SMILES): Cc1c(-c2cc3cc(C(=O)Nc4ccc(S(N)(=O)=O)cc4)ccc3o2)oc(=O)c(C)c1O [Example 305, 3,5-dimethyl-4-hydroxy-6-(5-(4-(sulfamoyl)phenylcarbamoyl)benzofuran-2-yl)-2H-pyran-2-one]
- IC50 [2, 5]: < 10 µM

Structure (SMILES): Cc1c(-c2cc3cc(C(=O)NCc4ccncc4)ccc3o2)oc(=O)c(C)c1O [Example 306, 3,5-dimethyl-4-hydroxy-6-(5-(4-pyridylmethylcarbamoyl)benzofuran-2-yl)-2H-pyran-2-one]
- IC50 [2, 5]: < 10 µM

Structure (SMILES): Cc1c(-c2cc3cc(C4CCNCC4)ccc3o2)oc(=O)c(C)c1O [Example 307, 3,5-dimethyl-4-hydroxy-6-(5-(4-piperidinyl)benzofuran-2-yl)-2H-pyran-2-one]
- IC50 [2, 5]: < 10 µM

Structure (SMILES): Cc1c(-c2cc3cc(C(=O)N(C)Cc4ccccc4)ccc3o2)oc(=O)c(C)c1O [Example 308, 6-(5-(N-benzyl-N-methylcarbamoyl)benzofuran-2-yl)-3,5-dimethyl-4-hydroxy-2H-pyran-2-one]
- IC50 [2, 5]: < 10 µM

Structure (SMILES): Cc1c(-c2cc3cc(C(=O)N(C)c4ccncc4)ccc3o2)oc(=O)c(C)c1O [Example 309, 3,5-dimethyl-4-hydroxy-6-(5-(N-methyl-N-(4-pyridyl)carbamoyl)benzofuran-2-yl)-2H-pyran-2-one]
- IC50 [2, 5]: < 10 µM
